Data taken from patent US8822462B2, “Subunit selective NMDA receptor potentiators for the treatment of neurological conditions” (Emory University, priority 2009, dated 2014).
Read-outs that look alike come from different tables or passages of the source.

Key:
NR1/NR2A = molecular target: T1, NR1/NR2A (Homo sapiens, UniProt Q12879); test: Two electrode voltage clamp, Xenopus laevis oocytes expressing NR1/NR2A; type: cell-based; settings: read-out: 2A percent effect at the maximum tested concentration
T1 construct: expressed in transfected cells; host or cells: Xenopus laevis oocytes
T1 sequence (Q12879 23-1464, species assumed, other chains not shown): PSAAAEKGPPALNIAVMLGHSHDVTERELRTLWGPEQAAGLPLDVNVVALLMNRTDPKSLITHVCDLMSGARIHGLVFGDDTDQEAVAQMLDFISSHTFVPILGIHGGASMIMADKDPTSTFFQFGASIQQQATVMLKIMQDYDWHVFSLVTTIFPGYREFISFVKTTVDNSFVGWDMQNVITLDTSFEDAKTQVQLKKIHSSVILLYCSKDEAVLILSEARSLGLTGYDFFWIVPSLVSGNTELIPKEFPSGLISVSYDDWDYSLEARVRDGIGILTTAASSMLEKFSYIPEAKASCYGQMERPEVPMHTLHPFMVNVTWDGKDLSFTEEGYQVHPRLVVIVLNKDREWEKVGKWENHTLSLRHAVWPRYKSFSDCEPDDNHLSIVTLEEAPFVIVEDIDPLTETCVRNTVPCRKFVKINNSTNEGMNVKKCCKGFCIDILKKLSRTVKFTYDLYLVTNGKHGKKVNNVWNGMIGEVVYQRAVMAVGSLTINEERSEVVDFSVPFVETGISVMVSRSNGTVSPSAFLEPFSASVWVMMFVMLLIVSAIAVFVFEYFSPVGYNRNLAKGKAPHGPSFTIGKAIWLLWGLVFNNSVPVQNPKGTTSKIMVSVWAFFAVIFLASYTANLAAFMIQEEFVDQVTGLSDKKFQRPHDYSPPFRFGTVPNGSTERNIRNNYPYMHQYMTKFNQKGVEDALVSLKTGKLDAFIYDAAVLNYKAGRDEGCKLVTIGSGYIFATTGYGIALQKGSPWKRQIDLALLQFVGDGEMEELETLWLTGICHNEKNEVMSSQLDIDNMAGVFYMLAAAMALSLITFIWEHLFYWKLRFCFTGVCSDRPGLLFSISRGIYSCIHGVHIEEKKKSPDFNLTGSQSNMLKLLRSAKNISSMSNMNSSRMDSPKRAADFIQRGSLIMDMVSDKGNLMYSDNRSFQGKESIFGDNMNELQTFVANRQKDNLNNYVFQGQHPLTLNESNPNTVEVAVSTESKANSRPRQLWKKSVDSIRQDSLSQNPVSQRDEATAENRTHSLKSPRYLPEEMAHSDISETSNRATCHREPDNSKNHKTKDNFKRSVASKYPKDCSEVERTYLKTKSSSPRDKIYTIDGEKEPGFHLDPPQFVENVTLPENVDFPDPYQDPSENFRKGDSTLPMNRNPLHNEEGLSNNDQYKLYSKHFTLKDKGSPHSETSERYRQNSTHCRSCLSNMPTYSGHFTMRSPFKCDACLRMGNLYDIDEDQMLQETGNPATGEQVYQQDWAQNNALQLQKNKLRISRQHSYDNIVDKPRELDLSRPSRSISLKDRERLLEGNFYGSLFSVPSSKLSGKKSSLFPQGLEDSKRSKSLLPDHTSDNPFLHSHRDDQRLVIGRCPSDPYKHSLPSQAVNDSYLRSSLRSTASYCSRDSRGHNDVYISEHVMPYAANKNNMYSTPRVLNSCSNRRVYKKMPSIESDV
Method: (§1) In the table above, potency is expressed as fitted EC50 value to average composite concentration-effect data constructed from current responses recorded under two electrode voltage clamp from Xenopus laevis oocytes expressing either NR1/NR2A, B, C, or D, GluR1, or GluR6. No effect means less than 20% change in response amplitude at 30 μM of drug.

NR1/NR2B = molecular target: T2, NR1/NR2B (Homo sapiens, UniProt Q05586+Q13224); test: Two electrode voltage clamp, Xenopus laevis oocytes expressing NR1/NR2B; type: cell-based; settings: for IC50: fitted to composite concentration-effect data, Max 0 = inhibition, read-out: 2B IC50
T2 construct: expressed in transfected cells; host or cells: Xenopus laevis oocytes
T2 sequence (Q13224 27-1484, species assumed, other chains not shown): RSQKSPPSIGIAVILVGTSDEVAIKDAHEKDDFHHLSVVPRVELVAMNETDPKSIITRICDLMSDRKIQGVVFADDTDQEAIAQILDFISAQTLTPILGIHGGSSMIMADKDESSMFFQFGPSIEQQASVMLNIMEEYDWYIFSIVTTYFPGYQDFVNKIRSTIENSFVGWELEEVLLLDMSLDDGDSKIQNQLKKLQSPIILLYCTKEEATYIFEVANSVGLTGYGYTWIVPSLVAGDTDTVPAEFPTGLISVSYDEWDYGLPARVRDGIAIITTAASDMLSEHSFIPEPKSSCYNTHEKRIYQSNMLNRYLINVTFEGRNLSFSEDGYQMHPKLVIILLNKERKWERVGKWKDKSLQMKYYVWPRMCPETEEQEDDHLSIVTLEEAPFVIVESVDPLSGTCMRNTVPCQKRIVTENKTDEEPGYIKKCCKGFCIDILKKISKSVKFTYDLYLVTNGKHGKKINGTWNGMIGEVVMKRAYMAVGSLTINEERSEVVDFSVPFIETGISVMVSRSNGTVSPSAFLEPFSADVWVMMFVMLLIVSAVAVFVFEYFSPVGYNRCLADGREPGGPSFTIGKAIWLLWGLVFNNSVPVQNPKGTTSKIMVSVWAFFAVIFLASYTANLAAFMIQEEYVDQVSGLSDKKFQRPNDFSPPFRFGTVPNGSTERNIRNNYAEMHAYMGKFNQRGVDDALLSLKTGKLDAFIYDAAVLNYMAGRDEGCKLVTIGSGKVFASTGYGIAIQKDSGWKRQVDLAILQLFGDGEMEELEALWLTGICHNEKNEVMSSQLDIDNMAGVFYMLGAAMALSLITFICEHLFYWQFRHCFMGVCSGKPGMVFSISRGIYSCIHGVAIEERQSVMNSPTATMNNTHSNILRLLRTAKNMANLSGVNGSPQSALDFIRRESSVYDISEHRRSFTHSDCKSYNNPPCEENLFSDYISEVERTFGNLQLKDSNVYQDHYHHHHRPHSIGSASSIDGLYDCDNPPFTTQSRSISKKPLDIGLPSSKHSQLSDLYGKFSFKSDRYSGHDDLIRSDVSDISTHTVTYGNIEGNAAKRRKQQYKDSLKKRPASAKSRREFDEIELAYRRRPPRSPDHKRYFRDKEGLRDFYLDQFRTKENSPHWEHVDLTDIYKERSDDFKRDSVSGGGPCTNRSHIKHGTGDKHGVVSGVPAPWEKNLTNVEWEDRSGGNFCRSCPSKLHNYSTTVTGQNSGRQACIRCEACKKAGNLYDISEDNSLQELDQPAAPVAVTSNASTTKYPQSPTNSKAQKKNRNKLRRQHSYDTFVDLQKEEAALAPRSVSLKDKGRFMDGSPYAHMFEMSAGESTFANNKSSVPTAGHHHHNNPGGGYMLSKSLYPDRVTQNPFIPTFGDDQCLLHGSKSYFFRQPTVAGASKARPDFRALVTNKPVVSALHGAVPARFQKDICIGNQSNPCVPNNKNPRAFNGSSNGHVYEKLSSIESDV
Method: as §1

NR1/NR2C = molecular target: T3, NR1/NR2C (Homo sapiens, UniProt Q05586+Q14957); test: Two electrode voltage clamp, Xenopus laevis oocytes expressing NR1/NR2C; type: cell-based; settings: for activity at 100 µM: read-out: 2C percent effect at the maximum tested concentration; for IC50: fitted to composite concentration-effect data, read-out: 2C IC50; for Emax: maximal effect of fit, read-out: 2C Max
T3 construct: expressed in transfected cells; host or cells: Xenopus laevis oocytes
T3 sequence (Q14957 20-1233, species assumed, other chains not shown): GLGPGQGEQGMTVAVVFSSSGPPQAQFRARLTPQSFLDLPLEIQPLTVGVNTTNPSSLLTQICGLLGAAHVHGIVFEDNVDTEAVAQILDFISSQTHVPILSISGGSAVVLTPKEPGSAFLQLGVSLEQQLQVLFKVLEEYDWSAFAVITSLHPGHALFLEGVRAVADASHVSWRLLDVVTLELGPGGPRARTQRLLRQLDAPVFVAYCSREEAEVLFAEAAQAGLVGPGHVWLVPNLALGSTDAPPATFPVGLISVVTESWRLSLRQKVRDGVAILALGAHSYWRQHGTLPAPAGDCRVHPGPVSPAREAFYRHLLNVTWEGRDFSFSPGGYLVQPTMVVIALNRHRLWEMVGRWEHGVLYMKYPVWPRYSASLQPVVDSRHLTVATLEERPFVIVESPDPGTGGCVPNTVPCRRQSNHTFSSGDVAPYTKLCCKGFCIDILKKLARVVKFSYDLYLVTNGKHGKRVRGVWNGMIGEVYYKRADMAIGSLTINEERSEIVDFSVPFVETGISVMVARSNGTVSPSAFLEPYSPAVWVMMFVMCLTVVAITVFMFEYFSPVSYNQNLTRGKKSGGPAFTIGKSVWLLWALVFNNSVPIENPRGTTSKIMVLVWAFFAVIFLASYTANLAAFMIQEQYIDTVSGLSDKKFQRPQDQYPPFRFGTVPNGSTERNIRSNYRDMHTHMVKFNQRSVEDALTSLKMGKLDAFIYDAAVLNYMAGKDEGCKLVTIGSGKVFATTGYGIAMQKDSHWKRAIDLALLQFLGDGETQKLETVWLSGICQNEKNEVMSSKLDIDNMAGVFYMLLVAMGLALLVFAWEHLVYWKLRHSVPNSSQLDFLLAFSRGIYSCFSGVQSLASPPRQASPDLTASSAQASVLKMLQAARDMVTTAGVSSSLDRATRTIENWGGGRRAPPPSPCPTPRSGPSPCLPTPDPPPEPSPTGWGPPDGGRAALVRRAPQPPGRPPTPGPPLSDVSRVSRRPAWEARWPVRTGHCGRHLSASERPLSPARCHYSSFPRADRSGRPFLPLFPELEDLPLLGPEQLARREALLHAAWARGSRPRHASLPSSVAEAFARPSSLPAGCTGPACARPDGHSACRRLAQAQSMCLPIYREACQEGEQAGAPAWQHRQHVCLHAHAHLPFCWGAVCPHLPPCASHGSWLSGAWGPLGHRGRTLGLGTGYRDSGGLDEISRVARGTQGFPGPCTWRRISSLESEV
Text: Values are mean+SEM (n=14-20). […] C is the closed level; broken line is the open level.
The Hill slope at both receptors for all analogues was greater than 1, consistent with a cooperative effect of binding at two sites.
as §1

NR1/NR2D = NR1/NR2D (Homo sapiens, UniProt O15399+Q05586); test: Two electrode voltage clamp, Xenopus laevis oocytes expressing NR1/NR2D; settings: for Emax: read-out: 2D Max
[1] = read-out: 2B percent effect at the maximum tested concentration
[2] = read-out: 2D percent effect at the maximum tested concentration, at 100 μM

Row | activity at 100 µM (NR1/NR2B; [1]) [%] | activity at 100 µM (NR1/NR2C) [%] | activity at 100 µM (NR1/NR2D; [2]) [%] | Compound | activity at 100 µM (NR1/NR2A) [%] | activity at 100 µM (NR1/NR2D; read-out: 2D percent effect at the maximum tested concentration) [%] | activity at 30 µM (NR1/NR2A; at 30 μM) [%] | activity at 30 µM (NR1/NR2B; at 30 μM, read-out: 2B percent effect at the maximum tested concentration) [%] | IC50 (NR1/NR2C) [µM] | Emax (NR1/NR2C) [%] | IC50 (NR1/NR2D) [µM] | Emax (NR1/NR2D) [%] | IC50 (NR1/NR2B) [µM]
1 |  |  |  | COc1ccc(/C=C/C2c3cc(OC)c(OC)cc3CCN2C(=O)c2cccc(Cl)c2)cc1 (stereo not drawn) [1180-31] |  |  | 95 | 82 | 1.2 | 190 | 1.5 | 172 | 
2 |  |  |  | CSC1=NCCN1C(=O)c1ccc(C(C)(C)C)cc1 [compound 1343] | 115 |  |  |  | 139 | 303 | 210 | 480 | 138
3 |  | 88 | 97 | CSC1=NCCN1C(=O)c1ccc(C)cc1 [compound 1344] | 78 |  |  |  |  |  |  |  | 174
4 | 78 | 83 | 95 | COc1ccc(OCC2c3cc(OC)c(OC)cc3CCN2C(=O)c2ccc([N+](=O)[O-])cc2)cc1 (stereo not drawn) [compound 1370] | 77 |  |  |  |  |  |  |  | 
5 | 70 | 89 | 100 | COc1ccc(OCC2c3cc(OC)c(OC)cc3CCN2C(=O)c2ccc(C)cc2)cc1 (stereo not drawn) [compound 1371] | 73 |  |  |  |  |  |  |  | 
6 | 80 | 96 | 94 | COc1ccc(OCC2c3cc(OC)c(OC)cc3CCN2C(=O)c2ccc(Br)cc2)cc1 (stereo not drawn) [compound 1393] | 120 |  |  |  |  |  |  |  | 
7 | 61 | 71 | 68 | COc1cc2c(cc1OC)C(COc1ccc(F)cc1)N(C(=O)c1cccc(F)c1)CC2 (stereo not drawn) [compound 1394] | 101 |  |  |  |  |  |  |  | 
8 | 94 | 95 | 77 | Cc1ccc(C(=O)Nc2sc(C)cc2C(=O)O)cc1 [compound 1395] | 92 |  |  |  |  |  |  |  | 
9 | 97 | 95 | 81 | Cc1cc(C(=O)O)c(NC(=O)c2ccccc2)s1 [compound 1396] | 96 |  |  |  |  |  |  |  | 
10 | 102 | 87 | 76 | Cc1ccnc(NC(=O)c2ccc(C(C)(C)C)cc2)c1 [compound 1398] | 89 |  |  |  |  |  |  |  | 
11 | 89 | 96 | 86 | CCOC(=O)c1cc(C)sc1NC(=O)c1ccc(C(C)(C)C)cc1 [compound 1400] | 80 |  |  |  |  |  |  |  | 
12 | 87 | 97 | 86 | Cc1cc(NC(=O)c2ccc(C(C)(C)C)cc2)no1 [compound 1401] | 105 |  |  |  |  |  |  |  | 
13 | 80 | 103 | 93 | CSC1=NCCN1C(=O)c1ccc2ccccc2c1 [compound 1402] | 104 |  |  |  |  |  |  |  | 
14 | 94 | 104 | 86 | Cc1ccc(CSc2nccn2C(=O)c2ccc(C(C)(C)C)cc2)cc1 [compound 1403] | 88 |  |  |  |  |  |  |  | 
15 | 68 | 99 | 77 | O=C(O)C1=C(NC(=O)c2ccc(Br)cc2)SC2CCCC12 (stereo not drawn) [compound 1404] | 86 |  |  |  |  |  |  |  | 
16 |  |  |  | CC(C)(C)c1ccc(C(=O)Nc2scc(-c3ccccc3)c2C(=O)O)cc1 [compound 1406] | 75 |  |  |  | 45 | 341 | 44 | 351 | 37
17 | 91 | 97 | 90 | O=C(O)C1=C(NC(=O)c2ccc(I)cc2)SC2CCCC12 (stereo not drawn) [compound 1419] | 93 |  |  |  |  |  |  |  | 
18 | 97 | 94 | 75 | COc1ccc(C(=O)Nc2sc(C)cc2C(=O)O)cc1 [compound 1420] | 118 |  |  |  |  |  |  |  | 
19 |  |  |  | CCOc1ccc(-c2csc(NC(=O)c3ccc(C(C)(C)C)cc3)c2C(=O)O)cc1 [compound 1423] | 121 |  |  |  | 26 | 323 | 25 | 370 | 18
20 |  |  |  | COc1ccc(-c2csc(NC(=O)c3ccc(C(C)(C)C)cc3)c2C(=O)O)cc1 [compound 1424] | 123 |  |  |  | 42 | 434 | 43 | 475 | 19
21 | 70 | 80 | 72 | Cc1csc(C(=O)O)c1NC(=O)c1ccc(C(C)(C)C)cc1 [compound 1428] | 105 |  |  |  |  |  |  |  | 
22 |  |  |  | Cc1ccc(-c2csc(NC(=O)c3ccc(C(C)(C)C)cc3)c2C(=O)O)cc1 [compound 1434] | 121 |  |  |  | 16 | 224 | 18 | 273 | 11
23 | 98 | 103 | 103 | CC(C)(C)c1ccc(C(=O)Nc2scc(-c3ccc(Br)cc3)c2C(=O)O)cc1 [compound 1435] | 107 |  |  |  |  |  |  |  | 
24 | 85 | 77 | 87 | COc1ccc(NC(O)C2CN(C)C(=O)c3cc(OC)c(OC)cc32)c(OC)c1 (stereo not drawn) [compound 1438] | 114 |  |  |  |  |  |  |  | 

Row | Compound | activity at 100 µM (NR1/NR2B; [1]) [%] | activity at 100 µM (NR1/NR2C) [%] | activity at 100 µM (NR1/NR2D; [2]) [%] | activity at 100 µM (NR1/NR2A) [%] | activity at 100 µM (NR1/NR2D; read-out: 2D percent effect at the maximum tested concentration) [%] | activity at 30 µM (NR1/NR2A; at 30 μM) [%] | activity at 30 µM (NR1/NR2B; at 30 μM, read-out: 2B percent effect at the maximum tested concentration) [%] | IC50 (NR1/NR2C) [µM] | Emax (NR1/NR2C) [%] | IC50 (NR1/NR2D) [µM] | Emax (NR1/NR2D) [%] | IC50 (NR1/NR2B) [µM]
25 | COc1cc2c(cc1OC)CN(C(=O)c1ccccc1)CC2 [1180-28] | 95 | 78 |  | 71 | 80 |  |  |  |  |  |  | 
26 | Cc1cc(C(=O)O)c(NC(=O)c2ccc(C(C)(C)C)cc2)s1 [compound 1357] | 102 |  |  | 102 |  |  |  | 175 | 388 | 120 | 326 | 
27 | CCc1ccc(OCC2c3cc(OC)c(OC)cc3CCN2C(=O)c2ccccc2)cc1 (stereo not drawn) [compound 1366] | 97 |  | 108 | 98 |  |  |  | 3 | 121 |  |  | 
28 | COc1ccc(OCC2c3cc(OC)c(OC)cc3CCN2C(=O)c2ccc(Cl)cc2)cc1 (stereo not drawn) [compound 1368] | 78 |  |  | 105 |  |  |  | 4 | 135 | 5 | 114 | 
29 | COc1ccc(OCC2c3cc(OC)c(OC)cc3CCN2C(=O)c2cccc(F)c2)cc1 (stereo not drawn) [compound 1369] | 84 |  |  | 94 |  |  |  | 7 | 184 | 7 | 169 | 
30 | COc1ccc(OCC2c3cc(OC)c(OC)cc3CCN2C(=O)c2cccc(Cl)c2)cc1 (stereo not drawn) [compound 1390] | 82 |  |  | 115 |  |  |  | 3 | 215 | 3 | 205 | 
31 | COc1ccc(OCC2c3cc(OC)c(OC)cc3CCN2C(=O)c2cccc(Br)c2)cc1 (stereo not drawn) [compound 1391] | 74 |  |  | 119 |  |  |  | 1 | 195 | 2 | 188 | 
32 | COc1ccc(OCC2c3cc(OC)c(OC)cc3CCN2C(=O)c2cccc(OC)c2)cc1 (stereo not drawn) [compound 1392] | 59 |  |  | 104 |  |  |  | 6 | 181 | 12 | 179 | 
33 | CC(C)(C)c1ccc(C(=O)Nc2sc3c(c2C(=O)O)CCC3)cc1 [compound 1399] | 108 |  |  | 100 |  |  |  | 77 | 301 | 26 | 261 | 
34 | CC(C)(C)c1ccc(C(=O)Nc2sc3c(c2C(=O)O)CCCC3)cc1 [compound 1417] | 102 |  |  | 87 |  |  |  | 20 | 202 | 16 | 205 | 
35 | Cc1sc(NC(=O)c2ccc(C(C)(C)C)cc2)c(C(=O)O)c1C [compound 1418] | 115 |  |  | 99 |  |  |  | 33 | 187 | 35 | 195 | 
36 | CCc1cc(C(=O)O)c(NC(=O)c2ccc(C(C)(C)C)cc2)s1 [compound 1421] | 100 |  |  | 106 |  |  |  | 41 | 159 | 35 | 152 | 
37 | COc1ccc(OCC2c3cc(OC)c(OC)cc3CCN2C(=O)c2cccc(C)c2)cc1 (stereo not drawn) [compound 1425] | 94 |  |  | 74 |  |  |  | 5 | 208 | 5 | 172 | 
38 | COc1ccc(OCC2c3cc(OC)c(OC)cc3CCN2C(=O)c2cccc(C(F)(F)F)c2)cc1 (stereo not drawn) [compound 1426] | 86 |  |  | 88 |  |  |  | 2 | 171 | 2 | 204 | 
39 | Cc1sc(NC(=O)c2ccc(C(C)(C)C)cc2)c(C(N)=O)c1C [compound 1433] | 98 |  |  | 97 |  |  |  | 51 | 134 | 34 | 150 | 
